Several values for one entry are separate records, joined by “and”; a condition that tells them apart may be missing. Identical values can stand only once.
Test system: murine model of ischemia/reperfusion injury (cerebral ischemia)
Test: Murine ischemia/reperfusion model: brain infarct size/volume by TTC staining
Assay type: in vivo, mouse
Design: Damaged Cross Section Area (sum of sections), individual mice: unit: mm^2
Settings: for infarct size (Damaged %), Average: 4 mg/Kg I.V. 1 hr after occlusion, 1 hr ischemia; for infarct size (Damaged %), Average / infarct volume (Corrected Volume), Average: mean ± SEM
[1] = 4 mg/Kg after 1 hr ischemia, 24 hr reperfusion, n=6
[2] = 4 mg/Kg after 1 hr ischemia, 24 hr reperfusion, mice No. 1-6, listed as Pep-P

## Tyr-D-Ala-Phe-Ala-Asp-Val-Ala-Ser-Thr-Ile-Gly-Asp-Phe-Phe-His-Ser-Ile-NH2 (AFADVASTIGDFFHSI; D-Ala, C-terminal amide; printed: Ala-Phe-Ala-Asp-Val-Ala-Ser-Thr-Ile-Gly-Asp-Phe-Phe-His-Ser-Ile-) [Peptide P, linear 17 amino acid peptide with alanine as D-isomer]
24 hr reperfusion, n=6
  infarct size (Damaged %), Average: 16.87+/−3.3%
24 hr reperfusion, n=6, listed as Pep-P
  infarct size (Damaged %), Average: 16.87 ± 3.3%
[1]
  infarct volume (Corrected Volume), Average: 24±4.8 mm^3
  Damaged Cross Section Area (sum of sections), Average: 11.87 ± 2.4%
4 mg/Kg after 1 hr ischemia, 24 hr reperfusion, n=6, listed as Pep-P
  infarct volume (Corrected Volume), Average: 23.74 ± 4.8% mm^3
4 mg/Kg after 1 hr ischemia, 24 hr reperfusion, mice No. 1-6, Damaged Cross Section Area × 2 mm section, listed as Pep-P
  Corrected Volume, individual mice: 35.32 mm^3 and 5.10 mm^3 and 16.98 mm^3 and 35.86 mm^3 and 25.84 mm^3 and 23.36 mm^3
[2]
  Damaged %, individual mice: 25.77% and 3.94% and 12.69% and 24.58% and 18.16% and 16.10%
  Damaged Cross Section Area (sum of sections), individual mice: 17.66 and 2.55 and 8.49 and 17.93 and 12.92 and 11.68
4 mg/kg, after 24 h of reperfusion
  reduction of infarct volume compared to control animals: 59%
Brain section 1, 4 mg/Kg after 1 hr ischemia, 24 hr reperfusion, listed as Pep-P, 4 mg/kg
  Damaged Cross Section Area 1, individual mice: 3.69 and 0 (2×) and 1.42 and 1.89 and 0.27
Brain section 2, 4 mg/Kg after 1 hr ischemia, 24 hr reperfusion, listed as Pep-P, 4 mg/kg
  Damaged Cross Section Area 2, individual mice: 5.66 and 0.32 and 1.38 and 3.27 and 4.59 and 1.8
Brain section 3, 4 mg/Kg after 1 hr ischemia, 24 hr reperfusion, listed as Pep-P, 4 mg/kg
  Damaged Cross Section Area 3, individual mice: 6.47 and 1.12 and 2.63 and 7.23 and 2.22 and 5.15
Brain section 4, 4 mg/Kg after 1 hr ischemia, 24 hr reperfusion, listed as Pep-P, 4 mg/kg
  Damaged Cross Section Area 4, individual mice: 1.84 and 1.11 and 3.06 and 5.54 and 6.11 and 4.46

Reference: patent publication US6967192B2, “Seventeen amino acid peptide (Peptide P) for treating ischemia and reperfusion injury” (University of Kentucky Research Foundation, priority 2001, dated 2005)
